A short description of series [1]: Metabolism in human liver S9 fractions. The format is in vitro ADME. As to the method:
IMMH-010 metabolism was compared in human, monkey, dog, and rat liver S9 homogenates. IMMH-010 (10 μM) was incubated with liver S9 homogenate protein (0.5 mg protein/mL) and a reduced nicotinamide adenine dinucleotide phosphate (NADPH) regenerating system in a final volume of 0.2 mL Tris-HCl buffer (50 mM, pH 7.4) containing 5 mM MgCl2. The reactions were performed in triplicate. After 2 min of preincubation at 37 °C, reactions were initiated by the addition of IMMH-010 (10 μM). The samples were collected 0, 5, 10, and 20 min after incubation, 2 volumes of acetonitrile were added to terminate the reaction. After vortexing and centrifugation, IMMH-010, YPD-29B, M3, and M4 in the supernatant were analyzed by LC-MS/MS.
(§1) All statistics were calculated using GraphPad Prism 8.0 software (San Diego, CA, USA) designed for one-way ANOVA. Pharmacokinetic parameters were calculated with a non-compartmental analysis using WinNonlin Version 6.3 (Pharsight, Mountain View, CA, USA). ADMET predictor V10.0 (Simulations Plus, Inc., Lancaster, CA, USA) and Microsoft Excel (Microsoft, Redmond, WA, USA) were used to process the data (i.e., half-life (t1/2) and hepatic clearance (CLhep) determination). Data were expressed as means ± standard deviations (SD). Results were considered statistically significant if the p-value <0.05, <0.01 and <0.001.

A further series deals with MC38 colon carcinoma. The experiment in a line: Antitumor activity in MC38 colon carcinoma xenograft model. The format is in vivo, mouse. As to the method:
The antitumor activity of IMMH-010 was evaluated by B16F10 melanoma and MC38 colon carcinoma xenograft models. The B16F10 and MC38 cells were resuspended in saline (1.5 × 10^6 cells/0.2 mL saline) and injected subcutaneously into the right flanks of each mouse on day 0. The treated mice received once-daily oral administration of IMMH-010 maleate (1.25, 2.5, 5, and 10 mg/kg, n = 10) by oral gavage (PO) for 19 consecutive days, whereas the control mice received vehicle (0.5% carboxymethyl cellulose, n = 10). The mice in the positive control group received the anti-mouse PD-L1 antibody (696618M2, Bio X Cell, West Lebanon, NH, USA) at 10 mg/kg intraperitoneally every 3 days (n = 10). The first-line antineoplastic drug cyclophosphamide (CTX) was administered at doses of 80 and 40 mg/kg weekly in the B16F10 and MC38 models (n = 10), respectively. After the last treatment, on day 19, the mice were sacrificed, and the tumor and spleen were stripped and weighed. The tumor growth inhibition (TGI) was calculated as TGI = (1 − treatment group tumor weight/vehicle group tumor weight) × 100.

Series [2] in a line: Plasma and tumor PK in B16F10 melanoma xenograft mice. In kind it is in vivo, mouse. The settings on record: B16F10 mice, after last oral dose of IMMH-010 maleate 5 mg/kg. As to the method:
(§2) After the final dose, tumor and blood samples treated with IMMH-010 maleate (5 mg/kg) were collected over 72 h. Blood was exposed in an EP tube containing 500 mM NaF and 0.5% heparin sodium. Plasma samples were obtained by centrifugation, and tumor tissues were homogenized with 3 volumes (w/v) of saline on ice. The concentration of IMMH-010 and YPD-29B in plasma and tumor samples was quantitated by an LC-MS/MS method.
(§3) LC-MS/MS was performed using a triple quadrupole mass spectrometer (API 4000, AB Sciex, Framingham, MA, USA) with an ultra-performance liquid chromatography system (LC-30A, Shimadzu, Kyoto, Japan). Analyst 1.6.2 software (AB Sciex) was used for data acquisition and analysis. Mobile phase A was 1 mM ammonium acetate and mobile phase B was methanol. The mobile phase was delivered with the following gradient elution profile: 0–2.8 min, 70% B; 2.9 min, 85% B; 3 min, 90% B; 3.1–6.8 min, 100% B; 6.9–12 min, 70% B. The flow rate was 0.3 mL/min, and the column oven was maintained at 35 °C. The specific transitions monitored were 641.3 → 494.2 for IMMH-010, 597 → 155 for YPD-29B, 512 → 247 for M3, and 524 → 246 for M4.
as §1

The nature of series [3]: Plasma and tumor PK in MC38 colon cancer xenograft mice. In kind it is in vivo, mouse. The note with it: after last oral dose of IMMH-010 maleate 5 mg/kg. The procedure:
as §2, §3, §1

The next series concerns the target T1, CES2 (Homo sapiens, UniProt O00748).
T1 sequence (O00748 27-559): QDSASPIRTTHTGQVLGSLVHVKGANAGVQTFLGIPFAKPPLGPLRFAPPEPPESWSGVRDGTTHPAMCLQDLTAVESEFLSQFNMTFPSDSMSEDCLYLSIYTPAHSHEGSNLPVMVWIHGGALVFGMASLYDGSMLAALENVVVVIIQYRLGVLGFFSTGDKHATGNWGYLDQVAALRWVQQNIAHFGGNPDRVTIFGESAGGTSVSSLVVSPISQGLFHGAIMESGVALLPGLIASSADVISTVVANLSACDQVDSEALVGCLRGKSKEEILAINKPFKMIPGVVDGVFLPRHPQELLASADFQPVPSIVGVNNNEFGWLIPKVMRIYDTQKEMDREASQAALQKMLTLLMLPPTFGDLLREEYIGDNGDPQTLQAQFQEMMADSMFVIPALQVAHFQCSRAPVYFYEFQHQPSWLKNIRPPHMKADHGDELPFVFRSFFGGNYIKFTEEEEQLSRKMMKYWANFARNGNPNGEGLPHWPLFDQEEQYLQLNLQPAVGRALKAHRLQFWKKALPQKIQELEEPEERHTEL
Nature of the series: IMMH-010 hydrolysis by recombinant human CES2. In kind it is in vitro ADME. The settings on record: 10 μM, CES2 0.1 mg/mL, 15 min, 37 °C. Also noted: purchased Cypex Ltd. (Dundee, United Kingdom). The procedure:
To verify the role of CES1, CES2, and AADAC in human metabolism of […]-010 (10 μM) was incubated individually with recombinant human CES1, CES2, and AADAC (0.1 mg protein/mL) at 37 °C for 15 min. Lidocaine (500 μM), CPT-11 (2 μM), and phenacetin (1 mM), which are substrates of CES1, CES2, and AADAC, were used as positive controls.

The mark [4] stands for this setting: MC38, IMMH-010 maleate 1.25 mg/kg PO once daily 19 days.
The mark [5] stands for this setting: MC38, IMMH-010 maleate 2.5 mg/kg PO once daily 19 days.
Where [6] appears, read: MC38, IMMH-010 maleate 5 mg/kg PO once daily 19 days.
Where [7] appears, read: MC38, IMMH-010 maleate 10 mg/kg PO once daily 19 days.

The structures appear in SMILES notation.

One may read the half-life as how long it takes for the measured level to halve. Lower therefore signals rapid decline. Regarding `CC(C)OC(=O)[C@H](CO)NCc1cc(Cl)c(OCc2cccc(-c3ccccc3)c2Br)cc1OCc1cccnc1` [IMMH-010], in series [1] (from human liver S9), the “estimated CLhep” value is reported as 18.2 mL/min/kg. For the same molecule, in series [1] (pH 7.4, human liver S9 0.5 mg protein/mL, 10 μM, NADPH), the half-life at 10 μM was determined as 6.66 min. Besides, in series [1] (range over human, monkey, dog and rat liver S9), the “CLhep as share of hepatic blood flow” value is given as 83.4–91.0%. The “Tumor Weight (g) X ± SD” value in the series with MC38 colon carcinoma (setting [4]) is reported as 1.03 ± 0.65 g; with MC38 colon carcinoma (setting [5]), 1.13 ± 0.78 g; in the series with MC38 colon carcinoma (setting [6]), 0.42 ± 0.39 g; in the series with MC38 colon carcinoma (setting [7]) it was 0.73 ± 0.54 g. Besides, the “Tumor Weight TGI (%)” value is 40% in the series on MC38 colon carcinoma (setting [4]), 34% in the series on MC38 colon carcinoma (setting [5]), 75% in the series with MC38 colon carcinoma (setting [6]) and 57% with MC38 colon carcinoma (setting [7]). For the same molecule, the “concentration of IMMH-010 in plasma and tumor tissues” value in series [2] and in series [3] was < 1 ng/mL in each case. Besides, the “remaining amount of IMMH-010” value at CES2 worked out at 94.2%.

The record behind these values is paper PMC8143347, “Metabolism and Interspecies Variation of IMMH-010, a Programmed Cell Death Ligand 1 Inhibitor Prodrug” (Pharmaceutics, 2021).
